Measured values as given in the supplement of paper PMC10307832.

Tests used:
Experiment in all cases: relative viability (nuclei count vs DMSO), 5 days (fraction); higher = more cells survive
NCI-H1355 = tested on: NCI-H1355
Summary of the method: (§1)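 Dosing by pin tool came one day after lung cancer cell lines were seeded in 1536-well plates, using either one drug or a fixed anchor-drug dose plus five library-drug doses (not always all listed) in √10 steps. After 5 days, nuclei were counted on 4× images. Relative viability is treated-well nuclei count divided by vehicle-well nuclei count, and values are medians of duplicate plates.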

HOP-62 = tested on: HOP-62
Summary of the method: as §1

201T = tested on: 201T
Summary of the method: as §1

LCLC-97TM1 = tested on: LCLC-97TM1
Summary of the method: as §1

NCI-H2405 = tested on: NCI-H2405
Summary of the method: as §1

NCI-H1437 = tested on: NCI-H1437
Summary of the method: as §1

NCI-H1650 = tested on: NCI-H1650
Summary of the method: as §1

RERF-LC-KJ = tested on: RERF-LC-KJ
Summary of the method: as §1

SK-LU-1 = tested on: SK-LU-1
Summary of the method: as §1

HCC-44 = tested on: HCC-44
Summary of the method: as §1

NCI-H2228 = tested on: NCI-H2228
Summary of the method: as §1

NCI-H3122 = tested on: NCI-H3122
Summary of the method: as §1

NCI-H727 = tested on: NCI-H727
Summary of the method: as §1

CAL-12T = tested on: CAL-12T
Summary of the method: as §1

NCI-H647 = tested on: NCI-H647
Summary of the method: as §1

HCC-827 = tested on: HCC-827
Summary of the method: as §1

BEN = tested on: BEN
Summary of the method: as §1

LXF-289 = tested on: LXF-289
Summary of the method: as §1

NCI-H322M = tested on: NCI-H322M
Summary of the method: as §1

NCI-H2023 = tested on: NCI-H2023
Summary of the method: as §1

NCI-H2087 = tested on: NCI-H2087
Summary of the method: as §1

LCLC-103H = tested on: LCLC-103H
Summary of the method: as §1

For `C[C@@H]1CN(CC(=O)Nc2ccc3c(c2)Cc2cccc(-c4cc(=O)cc(N5CCOCC5)o4)c2S3)C[C@H](C)O1` + CC(C)C[C@H](NC(=O)[C@H](Cc1ccccc1)NC(=O)c1cnccn1)B(O)O [Bortezomib] (partner 0.002 µM), which relative viability (NCI-H1355; first compound 0.04 µM) is on record?
Its relative viability is 1.2.

And the relative viability (NCI-H1355; first compound 0.1265 µM)?
Its relative viability is 1.23.

What about the relative viability (NCI-H1355; first compound 0.4 µM) of the same compound?
The relative viability was 1.19.

And the relative viability (NCI-H1355; first compound 4 µM)?
The relative viability was 1.18.

And the relative viability (HOP-62; first compound 0.04 µM)?
The relative viability was 0.677.

And the relative viability (HOP-62; first compound 0.1265 µM)?
Its relative viability is 0.548.

What about the relative viability (HOP-62; first compound 0.4 µM) of the same compound?
Its relative viability is 0.755.

What about the relative viability (HOP-62; first compound 4 µM) of the same compound?
Its relative viability is 1.02.

What about the relative viability (201T; first compound 0.04 µM) of the same compound?
The relative viability was 1.12.

What about the relative viability (201T; first compound 0.1265 µM) of the same compound?
Its relative viability is 1.04.

What about the relative viability (201T; first compound 0.4 µM) of the same compound?
The relative viability was 1.16.

And the relative viability (201T; first compound 4 µM)?
The relative viability was 1.09.

And the relative viability (LCLC-97TM1; first compound 0.1265 µM)?
The relative viability was 0.615.

What about the relative viability (LCLC-97TM1; first compound 0.4 µM) of the same compound?
Its relative viability is 0.33.

And the relative viability (LCLC-97TM1; first compound 4 µM)?
The relative viability was 0.391.

What about the relative viability (NCI-H2405; first compound 0.04 µM) of the same compound?
The relative viability was 0.984.

And the relative viability (NCI-H2405; first compound 0.1265 µM)?
The relative viability was 0.995.

What about the relative viability (NCI-H2405; first compound 0.4 µM) of the same compound?
The relative viability was 0.978.

And the relative viability (NCI-H2405; first compound 4 µM)?
Its relative viability is 0.994.

And the relative viability (NCI-H1437; first compound 0.04 µM)?
Its relative viability is 0.486.

What about the relative viability (NCI-H1437; first compound 0.1265 µM) of the same compound?
The relative viability was 0.529.

What about the relative viability (NCI-H1437; first compound 0.4 µM) of the same compound?
The relative viability was 0.489.

What about the relative viability (NCI-H1437; first compound 4 µM) of the same compound?
Its relative viability is 0.45.

And the relative viability (NCI-H1650; first compound 0.04 µM)?
The relative viability was 0.221.

And the relative viability (NCI-H1650; first compound 0.1265 µM)?
The relative viability was 0.23.

And the relative viability (NCI-H1650; first compound 0.4 µM)?
The relative viability was 0.192.

And the relative viability (NCI-H1650; first compound 4 µM)?
Its relative viability is 0.183.

What about the relative viability (RERF-LC-KJ; first compound 0.04 µM) of the same compound?
The relative viability was 1.24.

And the relative viability (RERF-LC-KJ; first compound 0.1265 µM)?
The relative viability was 1.17.

What about the relative viability (RERF-LC-KJ; first compound 0.4 µM) of the same compound?
The relative viability was 1.07.

What about the relative viability (RERF-LC-KJ; first compound 4 µM) of the same compound?
The relative viability was 0.998.

And the relative viability (SK-LU-1; first compound 0.04 µM)?
Its relative viability is 1.17.

And the relative viability (SK-LU-1; first compound 0.1265 µM)?
The relative viability was 1.43.

What about the relative viability (SK-LU-1; first compound 0.4 µM) of the same compound?
Its relative viability is 1.09.

And the relative viability (SK-LU-1; first compound 4 µM)?
The relative viability was 1.13.

What about the relative viability (HCC-44; first compound 0.04 µM) of the same compound?
The relative viability was 0.952.

And the relative viability (HCC-44; first compound 0.1265 µM)?
Its relative viability is 0.938.

What about the relative viability (HCC-44; first compound 0.4 µM) of the same compound?
Its relative viability is 0.982.

And the relative viability (HCC-44; first compound 4 µM)?
Its relative viability is 0.796.

And the relative viability (NCI-H2228; first compound 0.04 µM)?
The relative viability was 0.932.

What about the relative viability (NCI-H2228; first compound 0.1265 µM) of the same compound?
The relative viability was 0.877.

And the relative viability (NCI-H2228; first compound 0.4 µM)?
Its relative viability is 0.821.

What about the relative viability (NCI-H2228; first compound 4 µM) of the same compound?
Its relative viability is 0.523.

And the relative viability (NCI-H3122; first compound 0.04 µM)?
The relative viability was 1.06.

What about the relative viability (NCI-H3122; first compound 0.1265 µM) of the same compound?
Its relative viability is 0.977.

And the relative viability (NCI-H3122; first compound 0.4 µM)?
Its relative viability is 1.02.

What about the relative viability (NCI-H3122; first compound 4 µM) of the same compound?
The relative viability was 0.969.

And the relative viability (NCI-H727; first compound 0.04 µM)?
The relative viability was 0.892.

What about the relative viability (NCI-H727; first compound 0.1265 µM) of the same compound?
The relative viability was 0.824.

And the relative viability (NCI-H727; first compound 0.4 µM)?
Its relative viability is 0.804.

And the relative viability (NCI-H727; first compound 4 µM)?
Its relative viability is 0.878.

What about the relative viability (CAL-12T; first compound 0.04 µM) of the same compound?
The relative viability was 1.06.

What about the relative viability (CAL-12T; first compound 0.1265 µM) of the same compound?
Its relative viability is 0.954.

What about the relative viability (CAL-12T; first compound 0.4 µM) of the same compound?
Its relative viability is 1.06.

And the relative viability (CAL-12T; first compound 4 µM)?
The relative viability was 0.796.

And the relative viability (NCI-H647; first compound 0.04 µM)?
Its relative viability is 1.

What about the relative viability (NCI-H647; first compound 0.1265 µM) of the same compound?
Its relative viability is 1.02.

What about the relative viability (NCI-H647; first compound 0.4 µM) of the same compound?
The relative viability was 0.985.

What about the relative viability (NCI-H647; first compound 4 µM) of the same compound?
The relative viability was 0.484.

What about the relative viability (HCC-827; first compound 0.04 µM) of the same compound?
Its relative viability is 1.01.

And the relative viability (HCC-827; first compound 0.1265 µM)?
The relative viability was 1.02.

And the relative viability (HCC-827; first compound 0.4 µM)?
The relative viability was 1.06.

And the relative viability (HCC-827; first compound 4 µM)?
Its relative viability is 1.09.

What about the relative viability (BEN; first compound 0.04 µM) of the same compound?
Its relative viability is 0.624.

What about the relative viability (BEN; first compound 0.1265 µM) of the same compound?
Its relative viability is 0.71.

What about the relative viability (BEN; first compound 0.4 µM) of the same compound?
Its relative viability is 0.861.

What about the relative viability (BEN; first compound 4 µM) of the same compound?
The relative viability was 0.788.

And the relative viability (LXF-289; first compound 0.04 µM)?
Its relative viability is 0.996.

What about the relative viability (LXF-289; first compound 0.1265 µM) of the same compound?
The relative viability was 0.977.

What about the relative viability (LXF-289; first compound 0.4 µM) of the same compound?
Its relative viability is 1.02.

And the relative viability (LXF-289; first compound 4 µM)?
Its relative viability is 0.999.

And the relative viability (NCI-H322M; first compound 0.04 µM)?
Its relative viability is 1.09.

And the relative viability (NCI-H322M; first compound 0.1265 µM)?
Its relative viability is 1.14.

And the relative viability (NCI-H322M; first compound 0.4 µM)?
The relative viability was 1.32.

What about the relative viability (NCI-H322M; first compound 4 µM) of the same compound?
Its relative viability is 1.12.

And the relative viability (NCI-H2023; first compound 0.04 µM)?
The relative viability was 1.06.

And the relative viability (NCI-H2023; first compound 0.1265 µM)?
The relative viability was 0.969.

And the relative viability (NCI-H2023; first compound 0.4 µM)?
Its relative viability is 0.783.

What about the relative viability (NCI-H2023; first compound 4 µM) of the same compound?
Its relative viability is 0.876.

And the relative viability (NCI-H2087; first compound 0.04 µM)?
The relative viability was 0.751.

And the relative viability (NCI-H2087; first compound 0.1265 µM)?
Its relative viability is 0.808.

And the relative viability (NCI-H2087; first compound 0.4 µM)?
Its relative viability is 0.948.

And the relative viability (NCI-H2087; first compound 4 µM)?
Its relative viability is 0.652.

And the relative viability (LCLC-103H; first compound 0.04 µM)?
The relative viability was 1.19.

What about the relative viability (LCLC-103H; first compound 0.1265 µM) of the same compound?
The relative viability was 1.03.

And the relative viability (LCLC-103H; first compound 0.4 µM)?
The relative viability was 1.09.

What about the relative viability (LCLC-103H; first compound 4 µM) of the same compound?
The relative viability was 0.999.
